Source: patent US20110257204A1, “Penciclovir or Famciclovir for Treatment of Recurrent Genital Herpes with a One-Day Application” (priority 2005, published 2011)
Read-outs that look alike come from different tables or passages of the source.

How the values were obtained:
[1] = test system: recurrent genital herpes lesions; format: in vivo, human; details: for Time to healing of all lesions (median) / Proportion of aborted lesions: ITT; for Time to healing of all lesions (median): aborted lesions assigned time to healing of zero; for Time to healing of all lesions (median) / Proportion of aborted lesions / Time to healing of non-aborted lesions (median): famciclovir 1,000 mg b.i.d. for one day; for Hazard ratio, time to healing of non-aborted lesions: famciclovir 1,000 mg b.i.d. one day vs placebo
Protocol: The multi-center, multi-country, randomized, double-blind parallel-group, placebo controlled study is conducted to assess the efficacy and safety of a patient-initiated one-day treatment with famciclovir ([…]) 1,000 mg, twice a day, in patients with recurrent genital herpes. Approximately 450 eligible patients are randomized in a 1:1 ratio to receive either famciclovir (1,000 mg, twice a day) or matching placebo for one day. Patients are instructed to obtain a viral sample and initiate treatment within six hours of prodrome and/or recurrence of genital herpes lesions. All patients are required to return for clinic visits for observation of lesions on Days 2 and 3. Patients with lesions will continue with clinic visits on Days 4 and 5, then every other day until it is deemed that lesion healing has occurred however not to exceed Day 14. The following Table 1 represents the study design. Each patient receives either Famciclovir 2,000 mg [1,000 mg (4×250 mg capsules)] orally or placebo (4×250 mg matching placebo capsules) orally twice in one day. Study medication is to be administered twice in one day (during normal waking hours). One-day equals to 24 hours, if the patent starts a first dose in the PM the second should be taken upon waking in the AM. The first dose is taken within six hours of prodrome and/or genital herpes lesion occurrence. Within 6 hours of recurrence of either genital herpes symptom onset and/or lesion and prior to initiating therapy, patients obtain a viral sample for PCR at Visit 1. The sample is brought to the clinic at Visit 2. Patients maintain a diary to assess and record appearance/stage and location of lesion. From Visit 2 onwards, physicals are performed by clinician who examines genitalia for herpes lesions. Patients with lesions will continue with clinic visit on Days 4 (Visit 5) and 5 (Visit 6) then every other day until clinician investigator deems that the lesion healing has occurred however not to exceed Day 14. Should patients only experience symptoms, without onset of herpes lesion, these patients will return for clinic visits until resolution of symptoms. The primary efficacy variable refers to the investigator-assessed time to healing (re-epithelization, erythema may be present) of all non-aborted genital herpes lesions from the time of the first dose of study medication. Non-aborted lesions refer to all lesions requiring re-epithelization: lesions which undergo vesicular, ulcer/soft crust, hard crust formation. […] Primary efficacy variable is analyzed using the proportional hazards model, with treatment, gender and study center as explanatory variables, for patients over the modified ITT population. The Efron approximate likelihood method is used for resolution of ties. The 95% confidence intervals for the hazard ratio and median times to healing is calculated. The time to healing based on investigator-assessment (with aborted lesions assigned a time of zero) is analyzed on the PCR-positive and the ITT populations. A proportional hazards model is used in analysis, with treatment, gender, and study center as explanatory variables. The Efron approximate likelihood method is used for resolution of ties. A 95% confidence interval for the hazard ratio and median times to healing is calculated. Covariates and interactions listed for the primary efficacy variable are assessed separately by adding their terms into the proportional hazards model. The time to resolution of each symptom, as well as the time to resolution of all symptoms, will be analyzed using a proportional hazards model with treatment, gender, and study center as explanatory variables, over the ITT population. The proportion of patients reporting each symptom is presented descriptively, and compared between treatments using the Chochran-Mantel-Haenszel 9CHM) test, stratified by gender and study center, over the ITT population. […]

[2] = regardless of the dose given; cited from earlier work
[3] = test system: recurrent genital herpes lesions; details: previous trial; clinic-initiated treatment, low dose 125 mg twice a day for five days; cited from earlier work
[4] = patients receiving famciclovir in earlier studies; cited from earlier work

## CC(=O)OCC(CCn1cnc2cnc(N)nc21)COC(C)=O [famciclovir, 9-(4-acetoxy-3-acetoxymethylbut-1-yl)-2-aminopurine]
[1]
  Time to healing of all lesions (median): 3.5 days
  Proportion of aborted lesions: 23.3%
[1]; listed as Famciclovir
  Time to healing of all lesions (median): 4.3 days
  Proportion of aborted lesions: 23.3%
[1]; Modified ITT, oral, patient-initiated within 6 hours
  Time to healing of non-aborted lesions (median): 4.3 days
[1]; Modified ITT, proportional hazards model
  Hazard ratio, time to healing of non-aborted lesions: 1.64
[1]; Per Protocol
  Time to healing of non-aborted lesions (median): 4.3 days
  Hazard ratio, time to healing of non-aborted lesions: 1.72
[1]; famciclovir 1,000 mg twice a day, one day, immunocompetent patients, non-aborted lesions
  Reduction of median time to healing of recurrent genital herpes lesions compared to placebo: two
[2]
  Bioavailability: 77%
[3]
  Hazard ratio between famciclovir and placebo for time to healing: 1.48
[4]
  Most commonly reported adverse events: headache and nausea
